Some targets named below: WNK3 (Homo sapiens, UniProt Q9BYP7); GSG2 (Homo sapiens, UniProt Q8TF76); STK39 (Homo sapiens, UniProt Q9UEW8); AAK1 (Homo sapiens, UniProt Q2M2I8); PKN1 (Homo sapiens, UniProt Q16512); RPS6KA2 (Homo sapiens, UniProt Q15349); VRK1 (Homo sapiens, UniProt Q99986); CLK2 (Homo sapiens, UniProt P49760); PAK6 (Homo sapiens, UniProt Q9NQU5); BMP2K (Homo sapiens, UniProt Q9NSY1); NEK1 (Homo sapiens, UniProt Q96PY6); SRPK2 (Homo sapiens, UniProt P78362); CDC42BPA (Homo sapiens, UniProt Q5VT25).

Common to all, as to conditions: binder
Assay [1] deals with CLK3 (R134-T484) (Homo sapiens, UniProt P49761, A319V).
Assay [2] has as its target CLK1 (H148-I484) (Homo sapiens, UniProt P49759).
Assay [3] concerns the target CLK1 (H148-I484) (Homo sapiens, UniProt P49759, V324A).
The next assay has as its target T1, MYLK4 (Homo sapiens, UniProt Q86YV6).
T1 sequence (Q86YV6 1-388): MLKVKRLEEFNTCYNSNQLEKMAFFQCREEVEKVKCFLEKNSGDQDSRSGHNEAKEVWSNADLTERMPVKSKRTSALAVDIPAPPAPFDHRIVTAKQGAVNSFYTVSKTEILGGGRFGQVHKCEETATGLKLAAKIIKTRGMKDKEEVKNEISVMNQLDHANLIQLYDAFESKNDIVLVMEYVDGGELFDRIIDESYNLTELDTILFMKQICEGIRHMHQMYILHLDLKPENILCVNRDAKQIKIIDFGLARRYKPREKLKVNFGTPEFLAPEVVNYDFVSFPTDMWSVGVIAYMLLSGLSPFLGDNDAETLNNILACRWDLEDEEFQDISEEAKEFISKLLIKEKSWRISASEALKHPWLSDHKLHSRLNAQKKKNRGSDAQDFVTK

Another assay concerns the target T2, TTK (Homo sapiens, UniProt P33981).
T2 sequence (P33981 1-857): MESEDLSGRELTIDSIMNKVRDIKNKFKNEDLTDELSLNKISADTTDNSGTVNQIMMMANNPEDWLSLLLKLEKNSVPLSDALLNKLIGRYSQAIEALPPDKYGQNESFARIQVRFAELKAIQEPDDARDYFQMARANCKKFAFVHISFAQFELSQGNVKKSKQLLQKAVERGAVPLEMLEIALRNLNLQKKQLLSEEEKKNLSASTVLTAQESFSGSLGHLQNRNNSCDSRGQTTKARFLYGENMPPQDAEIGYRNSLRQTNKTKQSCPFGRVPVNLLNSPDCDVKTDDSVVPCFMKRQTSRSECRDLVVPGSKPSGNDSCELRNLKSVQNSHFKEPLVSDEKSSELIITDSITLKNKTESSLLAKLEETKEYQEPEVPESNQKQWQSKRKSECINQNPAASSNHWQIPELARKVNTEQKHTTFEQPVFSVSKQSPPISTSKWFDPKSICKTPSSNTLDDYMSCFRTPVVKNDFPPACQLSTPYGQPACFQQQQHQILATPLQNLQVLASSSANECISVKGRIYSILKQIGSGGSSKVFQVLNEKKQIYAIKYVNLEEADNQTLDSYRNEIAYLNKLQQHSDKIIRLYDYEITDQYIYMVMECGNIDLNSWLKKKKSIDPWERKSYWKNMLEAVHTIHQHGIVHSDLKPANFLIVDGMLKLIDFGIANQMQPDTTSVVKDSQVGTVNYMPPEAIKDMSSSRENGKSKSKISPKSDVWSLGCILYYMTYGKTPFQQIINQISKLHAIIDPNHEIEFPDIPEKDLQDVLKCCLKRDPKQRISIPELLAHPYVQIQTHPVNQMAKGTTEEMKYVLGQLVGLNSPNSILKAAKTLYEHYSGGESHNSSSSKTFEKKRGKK

Assay [4] addresses CLK3 (R134-T484) (Homo sapiens, UniProt P49761).

The values below come from article doi:10.1101/2020.07.01.182642v1 (biorxiv, 2020).

Each structure is given as a SMILES string.

Sequence of PKN1 (Q16512 whole entry): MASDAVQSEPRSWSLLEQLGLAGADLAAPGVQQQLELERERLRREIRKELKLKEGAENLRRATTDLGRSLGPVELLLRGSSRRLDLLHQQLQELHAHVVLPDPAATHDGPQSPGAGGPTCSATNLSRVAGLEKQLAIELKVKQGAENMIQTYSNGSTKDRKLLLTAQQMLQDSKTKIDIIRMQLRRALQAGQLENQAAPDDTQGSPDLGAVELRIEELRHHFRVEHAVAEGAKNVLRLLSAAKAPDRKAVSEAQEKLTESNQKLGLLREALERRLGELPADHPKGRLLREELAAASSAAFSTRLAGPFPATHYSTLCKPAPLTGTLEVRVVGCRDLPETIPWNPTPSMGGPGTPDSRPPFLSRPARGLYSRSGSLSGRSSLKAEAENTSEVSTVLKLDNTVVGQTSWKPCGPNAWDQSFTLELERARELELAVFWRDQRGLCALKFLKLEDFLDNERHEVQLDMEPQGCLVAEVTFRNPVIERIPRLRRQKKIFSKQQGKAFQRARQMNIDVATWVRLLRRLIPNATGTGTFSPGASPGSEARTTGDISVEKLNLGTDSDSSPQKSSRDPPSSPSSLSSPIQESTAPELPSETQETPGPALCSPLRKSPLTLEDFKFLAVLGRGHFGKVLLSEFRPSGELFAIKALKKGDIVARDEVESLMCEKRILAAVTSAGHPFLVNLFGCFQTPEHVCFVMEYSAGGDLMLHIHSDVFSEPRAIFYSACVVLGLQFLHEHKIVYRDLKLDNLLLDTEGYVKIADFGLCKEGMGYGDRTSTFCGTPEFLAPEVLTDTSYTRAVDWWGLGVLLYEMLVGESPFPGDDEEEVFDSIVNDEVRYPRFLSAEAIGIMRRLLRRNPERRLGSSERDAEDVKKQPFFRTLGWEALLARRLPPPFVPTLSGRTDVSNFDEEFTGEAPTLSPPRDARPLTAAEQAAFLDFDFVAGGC
Sequence of RPS6KA2 (Q15349 whole entry): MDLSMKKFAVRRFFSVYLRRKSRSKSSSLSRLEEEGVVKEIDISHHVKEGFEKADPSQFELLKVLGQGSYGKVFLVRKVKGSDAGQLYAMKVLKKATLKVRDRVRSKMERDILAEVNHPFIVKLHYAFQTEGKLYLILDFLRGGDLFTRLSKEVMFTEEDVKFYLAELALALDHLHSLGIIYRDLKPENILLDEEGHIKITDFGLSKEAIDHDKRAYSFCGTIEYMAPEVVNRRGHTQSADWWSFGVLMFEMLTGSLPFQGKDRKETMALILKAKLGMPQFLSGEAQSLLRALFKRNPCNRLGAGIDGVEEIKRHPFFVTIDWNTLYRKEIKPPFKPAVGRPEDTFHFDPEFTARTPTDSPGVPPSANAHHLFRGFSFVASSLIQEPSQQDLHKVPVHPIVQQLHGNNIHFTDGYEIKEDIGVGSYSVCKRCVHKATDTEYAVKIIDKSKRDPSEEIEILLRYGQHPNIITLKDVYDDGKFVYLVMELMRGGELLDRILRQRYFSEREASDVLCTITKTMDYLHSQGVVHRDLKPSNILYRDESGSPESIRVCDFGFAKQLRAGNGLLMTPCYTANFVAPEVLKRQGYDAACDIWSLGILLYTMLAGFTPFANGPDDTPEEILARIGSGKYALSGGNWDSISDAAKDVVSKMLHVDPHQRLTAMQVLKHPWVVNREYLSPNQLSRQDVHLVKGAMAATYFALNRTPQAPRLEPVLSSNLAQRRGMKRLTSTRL
Sequence of AAK1 (Q2M2I8 whole entry): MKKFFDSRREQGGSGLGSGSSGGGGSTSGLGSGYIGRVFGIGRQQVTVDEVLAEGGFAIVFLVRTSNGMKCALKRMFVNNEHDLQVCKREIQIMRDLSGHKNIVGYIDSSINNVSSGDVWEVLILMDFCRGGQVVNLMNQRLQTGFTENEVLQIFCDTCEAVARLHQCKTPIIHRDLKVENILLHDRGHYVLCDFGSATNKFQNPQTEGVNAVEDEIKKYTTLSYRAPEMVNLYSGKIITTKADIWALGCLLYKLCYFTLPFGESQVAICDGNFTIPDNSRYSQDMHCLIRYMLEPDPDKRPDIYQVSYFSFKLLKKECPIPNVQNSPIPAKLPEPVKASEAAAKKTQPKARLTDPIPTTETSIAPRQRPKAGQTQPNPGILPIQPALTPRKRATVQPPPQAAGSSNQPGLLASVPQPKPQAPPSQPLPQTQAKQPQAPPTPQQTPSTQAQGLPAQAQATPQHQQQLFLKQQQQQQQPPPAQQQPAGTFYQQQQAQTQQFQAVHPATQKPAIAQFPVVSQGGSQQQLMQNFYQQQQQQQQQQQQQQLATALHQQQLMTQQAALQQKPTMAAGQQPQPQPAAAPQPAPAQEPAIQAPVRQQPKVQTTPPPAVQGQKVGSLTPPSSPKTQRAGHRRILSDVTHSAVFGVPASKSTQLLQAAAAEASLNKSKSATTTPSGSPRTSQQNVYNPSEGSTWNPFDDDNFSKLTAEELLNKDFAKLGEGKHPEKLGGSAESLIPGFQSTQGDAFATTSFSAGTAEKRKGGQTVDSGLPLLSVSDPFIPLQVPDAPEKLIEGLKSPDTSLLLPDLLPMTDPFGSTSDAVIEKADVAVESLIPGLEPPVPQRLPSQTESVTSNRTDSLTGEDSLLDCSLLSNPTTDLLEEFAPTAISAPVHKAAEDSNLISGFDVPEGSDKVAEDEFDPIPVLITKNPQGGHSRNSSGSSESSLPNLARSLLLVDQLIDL
Sequence of CLK2 (P49760 whole entry): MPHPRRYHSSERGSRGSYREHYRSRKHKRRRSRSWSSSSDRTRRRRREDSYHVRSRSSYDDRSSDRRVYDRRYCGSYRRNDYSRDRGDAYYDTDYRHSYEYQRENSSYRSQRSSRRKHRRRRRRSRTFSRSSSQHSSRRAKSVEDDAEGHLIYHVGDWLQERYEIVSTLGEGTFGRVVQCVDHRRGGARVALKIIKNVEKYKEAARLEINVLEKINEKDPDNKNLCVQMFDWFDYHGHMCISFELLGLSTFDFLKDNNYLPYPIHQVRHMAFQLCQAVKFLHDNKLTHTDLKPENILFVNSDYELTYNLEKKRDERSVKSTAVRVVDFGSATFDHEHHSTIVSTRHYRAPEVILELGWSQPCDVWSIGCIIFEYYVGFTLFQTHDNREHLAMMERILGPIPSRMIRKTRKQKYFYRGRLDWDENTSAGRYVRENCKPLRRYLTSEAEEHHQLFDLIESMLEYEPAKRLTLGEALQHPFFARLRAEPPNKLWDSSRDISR
Sequence of NEK1 (Q96PY6 whole entry): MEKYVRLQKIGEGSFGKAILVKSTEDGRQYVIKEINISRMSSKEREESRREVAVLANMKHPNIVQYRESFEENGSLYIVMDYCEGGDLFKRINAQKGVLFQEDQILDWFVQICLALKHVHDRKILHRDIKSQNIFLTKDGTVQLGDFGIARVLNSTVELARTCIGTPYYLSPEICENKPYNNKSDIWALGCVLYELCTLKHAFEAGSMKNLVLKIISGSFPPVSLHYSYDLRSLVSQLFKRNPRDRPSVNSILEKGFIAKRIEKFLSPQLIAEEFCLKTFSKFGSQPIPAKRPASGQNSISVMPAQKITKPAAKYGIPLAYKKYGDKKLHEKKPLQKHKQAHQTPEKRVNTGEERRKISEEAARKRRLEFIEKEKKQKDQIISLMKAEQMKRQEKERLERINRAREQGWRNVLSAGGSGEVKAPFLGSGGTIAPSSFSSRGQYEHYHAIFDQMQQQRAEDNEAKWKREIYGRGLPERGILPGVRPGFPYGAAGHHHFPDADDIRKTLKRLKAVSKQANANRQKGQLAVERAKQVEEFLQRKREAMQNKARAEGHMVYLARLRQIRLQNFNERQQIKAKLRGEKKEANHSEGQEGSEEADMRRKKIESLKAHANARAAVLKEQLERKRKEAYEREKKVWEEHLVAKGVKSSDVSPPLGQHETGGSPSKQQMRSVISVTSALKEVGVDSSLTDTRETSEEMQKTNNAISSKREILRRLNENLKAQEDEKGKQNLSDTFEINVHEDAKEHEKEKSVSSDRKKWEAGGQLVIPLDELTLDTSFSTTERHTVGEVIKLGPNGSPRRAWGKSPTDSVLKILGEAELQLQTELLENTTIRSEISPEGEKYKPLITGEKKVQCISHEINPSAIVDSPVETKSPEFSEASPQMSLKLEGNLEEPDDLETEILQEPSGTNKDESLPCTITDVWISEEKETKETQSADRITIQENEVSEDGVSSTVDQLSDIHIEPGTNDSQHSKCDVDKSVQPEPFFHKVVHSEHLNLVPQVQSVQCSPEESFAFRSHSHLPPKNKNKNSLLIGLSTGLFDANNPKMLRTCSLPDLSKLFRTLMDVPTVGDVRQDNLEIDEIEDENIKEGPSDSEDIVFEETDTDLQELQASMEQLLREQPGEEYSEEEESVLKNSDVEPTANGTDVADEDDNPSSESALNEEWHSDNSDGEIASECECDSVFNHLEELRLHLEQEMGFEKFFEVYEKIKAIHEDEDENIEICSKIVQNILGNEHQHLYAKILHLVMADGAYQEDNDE
Sequence of SRPK2 (P78362 whole entry): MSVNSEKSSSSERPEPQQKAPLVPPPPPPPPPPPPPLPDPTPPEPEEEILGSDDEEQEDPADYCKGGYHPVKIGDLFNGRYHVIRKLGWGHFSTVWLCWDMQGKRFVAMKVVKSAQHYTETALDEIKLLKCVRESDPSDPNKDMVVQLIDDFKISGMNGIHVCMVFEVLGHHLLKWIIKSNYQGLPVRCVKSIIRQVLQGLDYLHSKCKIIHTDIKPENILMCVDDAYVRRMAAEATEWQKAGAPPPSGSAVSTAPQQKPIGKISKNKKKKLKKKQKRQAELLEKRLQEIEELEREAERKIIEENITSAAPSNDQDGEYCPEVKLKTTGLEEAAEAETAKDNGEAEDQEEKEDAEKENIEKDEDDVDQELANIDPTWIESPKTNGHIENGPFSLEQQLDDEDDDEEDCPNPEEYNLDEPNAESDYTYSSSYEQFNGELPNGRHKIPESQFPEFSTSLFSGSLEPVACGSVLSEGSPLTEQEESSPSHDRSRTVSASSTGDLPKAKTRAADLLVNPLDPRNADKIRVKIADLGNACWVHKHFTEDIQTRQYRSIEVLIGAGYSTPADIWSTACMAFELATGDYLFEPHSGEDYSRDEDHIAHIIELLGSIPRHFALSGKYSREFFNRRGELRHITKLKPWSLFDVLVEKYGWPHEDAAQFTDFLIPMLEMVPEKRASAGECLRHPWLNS

Regarding `CC(=O)c1cccc(-c2cnc3ccc(NCC4CC4)nn23)c1` [compound 1, K00135], the “ΔTm A319V CLK3” value at CLK3 (R134-T484) [1] is 5.8 °C. In addition, at CLK1 (H148-I484) [2], the “ΔTm wild type CLK1” value stood at 7.2 °C. The “ΔTm V324A CLK1” value on CLK1 (H148-I484) [3] stood at 4.9 °C. Further, the “ΔTm inhibitor 1” value at WNK3 came to 0.0 °C; on GSG2, 6.5 °C; on MYLK4, 5.8 °C; on STK39, 0.8 °C; at AAK1, 6.9 °C; at PKN1, 1.7 °C. Moreover, the “ΔTm inhibitor 1” value worked out at 2.7 °C at RPS6KA2; 0.7 °C on VRK1; 2.7 °C on TTK; 5.5 °C at CLK2; 1.1 °C on PAK6; 10.7 °C at BMP2K. The “ΔTm wild type CLK3” value on CLK3 (R134-T484) [4] was found to be 1.4 °C.

As for `CCN1/C(=C/C(C)=O)Sc2ccc(OC)cc21` [compound 2, TG003], the “ΔTm inhibitor 2” value at WNK3 was -0.3 °C; on MYLK4, 0.9 °C; on STK39, 0.5 °C; at AAK1 it was 1.5 °C; at PKN1 it was -0.5 °C; on RPS6KA2, 0.4 °C. Moreover, the “ΔTm inhibitor 2” value at VRK1 was 1.1 °C; at NEK1 it was -0.3 °C; on TTK, 0.5 °C; on SRPK2, -0.2 °C; on CLK2, 5.0 °C; at PAK6 it was -0.9 °C. In addition, the “ΔTm inhibitor 2” value on BMP2K was 0.2 °C; on CDC42BPA, -0.4 °C.

Consider `Nc1nccc(-c2ccc3noc(-c4ccc(Cl)cc4)c3c2)n1` [compound 4, K00972], for which the “ΔTm A319V CLK3” value on CLK3 (R134-T484) [1] is 0.6 °C. Moreover, at CLK1 (H148-I484) [2], the “ΔTm wild type CLK1” value is 5.7 °C. Besides, the “ΔTm V324A CLK1” value at CLK1 (H148-I484) [3] was found to be 2.4 °C. In addition, the “ΔTm inhibitor 4” value at GSG2 came to 4.0 °C; at MYLK4 it was 3.9 °C; on STK39 it was 0.0 °C; on AAK1 it was 3.4 °C; at PKN1 it was 0.4 °C; at RPS6KA2, 1.0 °C. The “ΔTm inhibitor 4” value worked out at 0.6 °C on NEK1; 1.7 °C at TTK; 0.4 °C on SRPK2; 7.2 °C at CLK2; 0.6 °C on CDC42BPA. Further, the “ΔTm wild type CLK3” value on CLK3 (R134-T484) [4] turned out to be 0.1 °C.
